Read-outs that look alike come from different tables or passages of the source.
Key:
[1] = test system: L. infantum promastigote forms; assay: Promastigote forms assay; type: cell-based, Leishmania infantum; details: for SI Promastigote forms: IC50 macrophages/IC50 parasite form; for IC50: 72 h; for times SI exceeds the reference drug SI (all forms): extracellular and intracellular forms; for times SI exceeds the reference drug SI (all forms) / number of times that compound SI exceeds the reference drug SI, Promastigote forms: reference Glucantime; for number of times that compound SI exceeds the reference drug SI, Promastigote forms: in brackets
Experimental: (§1) The compounds obtained were dissolved in the culture medium, at dosages of 100, 50, 25, 10, and 1 μM. The effects of each compound against promastigote forms were tested at 72 hours using a Neubauer haemocytometric chamber. The antileishmanial effect is expressed as the IC50, that is, the concentration required to give 50% inhibition, calculated by linear regression analysis from the Kc values of the concentrations employed.

[2] = test system: L. braziliensis promastigote forms; assay: Promastigote forms assay; type: cell-based, Leishmania braziliensis; details: for SI Promastigote forms: IC50 macrophages/IC50 parasite form; for IC50: 72 h; for number of times that compound SI exceeds the reference drug SI, Promastigote forms: in brackets, reference Glucantime
Experimental: as §1

[3] = test system: L. infantum axenic amastigote forms; assay: Axenic amastigote forms assay; type: cell-based, Leishmania infantum; details: for SI Axenic amastigote forms: IC50 macrophages/IC50 parasite form; for IC50: 48 hours per method (72 h); for number of times that compound SI exceeds the reference drug SI, Axenic amastigote forms: in brackets, reference Glucantime
Experimental: (§2) Axenic amastigotes forms of L. infantum and L. braziliensis were cultured following the methodology described previously by Moreno et al.. Thus, promastigote transformation to amastigotes was obtained after three days of culture in M199 medium (Invitrogen, Leiden, The Netherlands) supplemented with 10% heat-inactivated FCS, 1 g/L β-alanine, 100 mg/L L-asparagine, 200 mg/L sacarose, 50 mg/L sodium pyruvate, 320 mg/L malic acid, 40 mg/L fumaric acid, 70 mg/L succinic acid, 200 mg/L α-ketoglutaric acid, 300 mg/L citric acid, 1.1 g/L sodium bicarbonate, 5 g/L MES, 0.4 mg/L hemin, and 10 mg/L gentamicin pH 5.4 at 37°C. The effect of each compound against axenic amastigotes forms was tested at 48 hours using a Neubauer haemocytometric chamber. The antileishmanial effect is expressed as the IC50.

[4] = test system: L. braziliensis axenic amastigote forms; assay: Axenic amastigote forms assay; type: cell-based, Leishmania braziliensis; details: for SI Axenic amastigote forms: IC50 macrophages/IC50 parasite form; for IC50: 48 hours per method (72 h); for number of times that compound SI exceeds the reference drug SI, Axenic amastigote forms: in brackets, reference Glucantime
Experimental: as §2

[5] = test system: L. infantum intracellular amastigote forms; assay: Intracellular amastigote forms assay in J774.2 macrophages; type: cell-based, Leishmania infantum; details: for SI Intracellular amastigote forms / number of times that compound SI exceeds the reference drug SI, Intracellular amastigote forms: L. infantum; for SI Intracellular amastigote forms: IC50 macrophages/IC50 parasite form; for number of times that compound SI exceeds the reference drug SI, Intracellular amastigote forms: in brackets, reference Glucantime
Experimental: (§3) Cells were seeded at a density of 1 × 10^4 cells/well in 24-well microplates (Nunc) with rounded coverslips on the bottom and cultured for 2 days. Afterwards the cells were infected in vitro with promastigote forms of L. infantum and L. braziliensis, at a ratio of 10 : 1 during 24 hours. The non-phagocytosed parasites were removed by washing, and then the drugs (at 1, 10, 25, 50, 100 μM) were added. Macrophages with the drugs were incubated for 72 hours at 37°C in 5% CO2.
(§4) Drug activity was determined on the basis of number of amastigotes in treated and untreated cultures in methanol-fixed and Giemsa-stained preparations. The number of amastigotes was determined by analyzing 200 host cells distributed in randomly chosen microscopic fields. The antileishmanial effect is expressed as the IC50 values are the means of three separate determinations.

[6] = test system: L. braziliensis intracellular amastigote forms; assay: as above; type: cell-based, Leishmania braziliensis; details: for SI Intracellular amastigote forms / number of times that compound SI exceeds the reference drug SI, Intracellular amastigote forms: L. braziliensis; for SI Intracellular amastigote forms: IC50 macrophages/IC50 parasite form; for number of times that compound SI exceeds the reference drug SI, Intracellular amastigote forms: in brackets, reference Glucantime; for IC50: L. braziliensis in J774.2 macrophages, 72 h
Experimental: as §3, §4

[7] = test system: J774.2 macrophages; assay: Cytotoxicity test for macrophages (flow cytometry); type: cell-based, BALB/c rat; details: J774.2 macrophages after 72 h of culture, read-out: Macrophage toxicity IC50
Experimental: J774.2 macrophages (ECACC number 91051511) were originally obtained from a tumour in a female BALB/c […] in 1968. The cytotoxicity test for macrophages was performed according to the methodology of González et al.. After 72 hours of treatment, cell viability was determined by flow cytometry. Thus, 100 μL/well of propidium iodide solution ([…]) was added and incubated for 10 min at 28°C in darkness. Afterwards, 100 μL/well of fluorescein diacetate (100 ng/mL) was added and incubated under the same conditions. Finally, the cells were recovered by centrifugation at 400 g for 10 min and the precipitate washed with phosphate buffered saline (PBS). Flow cytometric analysis was performed with a FACSVantage flow cytometer (Becton Dickinson). The percentage viability was calculated in comparison with the control culture. The IC50 was calculated using linear regression analysis from the Kc values of the concentrations employed.

[8] = test system: L. infantum; assay: Infection assay in J774.2 macrophages; type: cell-based, Leishmania infantum; details: IC25 concentration; for infection rate decrease, percentage of inhibition capacity: with respect to control
Experimental: (§5) J774.2 macrophage cells were grown under the same conditions expressed in amastigote forms assay during two days. Afterwards, the cells were infected in vitro with promastigote forms of L. infantum and L. braziliensis, at a ratio of 10 : 1. The drugs (IC25 concentrations) were added immediately after infection and were incubated for 12 hours at 37°C in 5% CO2. The nonphagocytosed parasites and the drugs were removed by washing, and then the infected cultures were grown for 10 days in fresh medium. Fresh culture medium was added every 48 h. The drug activity was determined from the percentage of infected cells and the number of amastigotes per infected cell (in treated and untreated cultures) in methanol-fixed and Giemsa-stained preparations. The percentage of infected cells and the mean number of amastigotes per infected cell were determined by analyzing 200 host cells distributed in randomly chosen microscopic fields. Values are the average of three separate determinations.

[9] = test system: L. braziliensis; assay: Infection assay in J774.2 macrophages; type: cell-based, Leishmania braziliensis; details: IC25 concentration; for infection rate decrease, percentage of inhibition capacity: with respect to control
Experimental: as §5

[10] = test system: L. infantum promastigotes; assay: Metabolite excretion (1H-NMR); type: cell-based, Leishmania infantum; details: IC25, 96 hours, vs control
Experimental: (§6) Cultures of L. infantum and L. braziliensis promastigotes (initial concentration 5 × 10^5 cells/mL) received IC25 concentrations of the compounds (except for control cultures). After incubation for 96 hours at 28°C, the cells were centrifuged at 400 g for 10 min. Then supernatants were collected to determine the excreted metabolites using ^1H-NMR, and, eventually, chemical displacements were expressed in parts per million (ppm), using sodium 2,2-dimethyl-2-silapentane-5-sulphonate as the reference signal. The chemical displacements used to identify the respective metabolites were consistent with those described by Fernández-Becerra et al.

[11] = test system: L. braziliensis promastigotes; assay: Metabolite excretion (1H-NMR); type: cell-based, Leishmania braziliensis; details: IC25, 96 hours, vs control
Experimental: as §6

[12] = test system: L. infantum promastigotes; assay: Ultrastructural alterations (TEM); type: cell-based, Leishmania infantum; details: IC25, 96 hours
Experimental: (§7) The parasites were cultured at a density of 5 × 10^5 cells/mL in MTL medium, and the cultures contained drugs at the IC25 concentration.
(§8) After 96 hours, those cultures were centrifuged at 400 g for 10 min, and the pellets produced were washed in PBS and then mixed with 2% (v/v) P-formaldehyde-glutaraldehyde in 0.05 M cacodylate buffer (pH 7.4) for 4 hours at 4°C. After that, the pellets were prepared for TEM employing the technique of González et al..

[13] = test system: L. braziliensis promastigotes; assay: Ultrastructural alterations (TEM); type: cell-based, Leishmania braziliensis; details: IC25, 96 hours
Experimental: as §7, §8

Row | Compound | SI Promastigote forms [1] | times SI exceeds the reference drug SI (all forms) [1] | number of times that compound SI exceeds the reference drug SI, Promastigote forms [1] | SI Promastigote forms [2] | number of times that compound SI exceeds the reference drug SI, Promastigote forms [2] | SI Axenic amastigote forms [3] | number of times that compound SI exceeds the reference drug SI, Axenic amastigote forms [3] | SI Axenic amastigote forms [4] | number of times that compound SI exceeds the reference drug SI, Axenic amastigote forms [4] | SI Intracellular amastigote forms [5] | number of times that compound SI exceeds the reference drug SI, Intracellular amastigote forms [5] | SI Intracellular amastigote forms [6] | number of times that compound SI exceeds the reference drug SI, Intracellular amastigote forms [6] | decrease of average number of amastigotes per infected macrophage cell [8] | infection rate decrease, percentage of inhibition capacity [8] | decrease of average number of amastigotes per infected macrophage cell [9] | infection rate decrease, percentage of inhibition capacity [9] | change in excreted catabolites [10] | ultrastructural alterations by TEM [12] | other results
1 | CC(=O)OC[C@H]1O[C@@H](Oc2cc(OC(C)=O)c3c(=O)c(O[C@@H]4O[C@H](COC(C)=O)[C@@H](OC(C)=O)[C@H](OC(C)=O)[C@H]4OC(C)=O)c(-c4ccc(OC(C)=O)cc4)oc3c2)[C@H](OC(C)=O)[C@@H](OC(C)=O)[C@@H]1OC(C)=O [Compound 6] | >43.3 | more than 50 times | 54 | >31.9 | 53 | >32.8 | 55 | >35.7 | 71 | 24.8 | 50 | >32.9 | 66 | 24% | 71% | 69% | 82% | an increase in the excretion of succinate, and acetate, followed by malate, alanine, lactate and ethanol | induced empty vacuoles, lipid vacuoles, and a large number of electrodense vesicles | IC50 ([1]; Leishmania infantum): 23.1 ± 4.6 µM; IC50 ([2]; Leishmania braziliensis): 31.3 ± 3 µM; IC50 ([3]; Leishmania infantum): 30.5 ± 2.3 µM; IC50 ([4]; Leishmania braziliensis): 28 ± 1.6 µM; IC50 ([6]; Leishmania braziliensis): 30.4 ± 2.7 µM; IC50 ([7]; Mus musculus, J774.2, 72 h): > 1000 µM; change in excreted catabolites [11]: decreases in the excretion of acetate
2 | paeonoside [Compound 4] | 39.8 | more than 50 times | 50 | 35.6 | 59 | 37.2 | 62 | 42.2 | 84 | 31.8 | 64 | 30.6 | 61 | 37% | 77% | 61% | 68% | an increase in the excretion of succinate, and acetate, followed by malate, alanine, lactate and ethanol | many of the parasites appeared dead, while another showed pronounced vacuolization | IC50 [1]: 25.1 ± 1.9 µM; IC50 [2]: 28.1 ± 5.2 µM; IC50 [3]: 26.9 ± 1.4 µM; IC50 [4]: 23.7 ± 2.1 µM; IC50 ([5]; L. infantum in J774.2 macrophages, 72 h): 31.4 ± 2 µM; IC50 [6]: 32.7 ± 2.1 µM; IC50 [7]: > 1000 µM; ultrastructural alterations by TEM [13]: expansion of the kinetoplast, which appeared swollen
